According to the NIST ThermoML archive (doi:10.1021/je034136z):
Several values for one entry are separate records, joined by “and”; a condition that tells them apart may be missing. Equal values may be shown once. ± gives the expanded uncertainty stated by the source.

Conditions: Liquid

For `CC(C)(C)O` [2-methylpropan-2-ol], the “vapor or sublimation pressure” value (322.78 K) was 23.07 ± 0.35 kPa.
With `C=C(C)C` [2-methylpropene] the “vapor or sublimation pressure” value (322.79 K) was 605.14 ± 2 kPa, the “vapor or sublimation pressure” value (323.11 K) was 608.94 ± 2 kPa and the “vapor or sublimation pressure” value (323.14 K) was 608.84 ± 2 kPa and 609.14 ± 2 kPa. The “vapor or sublimation pressure” value (323.15 K) was 611.04 ± 2.1 kPa.
For `CCC(C)O` (centres undefined) [butan-2-ol], the “vapor or sublimation pressure” value (323.11 K) was 10.57 ± 0.34 kPa.
In the case of `CCO` [ethanol], the “vapor or sublimation pressure” value (323.17 K) is reported as 29.27 ± 0.36 kPa.
For `CO` [methanol], the “vapor or sublimation pressure” value (323.14 K) was 55.57 ± 0.41 kPa.
In the case of `CC(C)O` [propan-2-ol], the “vapor or sublimation pressure” value (323.16 K) is reported as 23.47 ± 0.35 kPa.
